Reference: US20120165332A1, “SULFONAMIDES AND SULFAMIDES AS ZAP-70 INHIBITORS” (Cellzome Limited, priority 2009, published 2012)

target: T1, ZAP-70 (Homo sapiens, UniProt P43403); assay: ZAP-70 kinobeads assay; format: binding; settings: cell lysate, affinity matrix with immobilized aminopyrido-pyrimidine ligand 24, dot blot detection
T1 construct: endogenous in cells; host or cells: cell lysate
T1 sequence (P43403 1-619): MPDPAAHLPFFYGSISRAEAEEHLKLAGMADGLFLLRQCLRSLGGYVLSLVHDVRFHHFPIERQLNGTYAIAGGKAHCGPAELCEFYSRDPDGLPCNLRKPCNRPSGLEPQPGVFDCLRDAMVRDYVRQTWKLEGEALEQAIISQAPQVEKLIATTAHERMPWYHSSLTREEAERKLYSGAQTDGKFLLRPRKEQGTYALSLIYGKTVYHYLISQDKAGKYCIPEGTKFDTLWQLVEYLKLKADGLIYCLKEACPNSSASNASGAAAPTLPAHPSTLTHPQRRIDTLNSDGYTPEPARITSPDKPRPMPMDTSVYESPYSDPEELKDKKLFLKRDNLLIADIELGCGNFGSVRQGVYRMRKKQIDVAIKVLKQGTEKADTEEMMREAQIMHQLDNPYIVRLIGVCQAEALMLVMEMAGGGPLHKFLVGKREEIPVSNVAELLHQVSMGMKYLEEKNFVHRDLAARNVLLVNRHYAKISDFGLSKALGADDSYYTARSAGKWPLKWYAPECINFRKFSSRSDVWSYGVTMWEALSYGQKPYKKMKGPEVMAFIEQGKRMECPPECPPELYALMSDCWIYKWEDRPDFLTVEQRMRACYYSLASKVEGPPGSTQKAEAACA
Procedure: The compounds of the present invention as described in the previous examples can be tested in the ZAP-70 kinobeads assay as described (EP-A 1862802 and WO-A 2007/137867). Briefly, test compounds (at various concentrations) and the affinity matrix with the immobilized aminopyrido-pyrimidine ligand 24 are added to cell lysate aliquots and allowed to bind to the proteins in the lysate sample. After the incubation time the beads with captured proteins are separated from the lysate. Bound proteins are then eluted and the presence ZAP-70 is detected and quantified using a specific antibody in a dot blot procedure and the Odyssey infrared detection system.

| SMILES | IC50 [nM] |
| --- | --- |
| COc1cc(Nc2ncc(F)c(Nc3cccc(C)c3N(CCCC(N)=O)S(C)(=O)=O)n2)cc(OC)c1OC [Example 25, 4-(N-(2-(5-fluoro-2-(3,4,5-trimethoxyphenylamino)pyrimidin-4-ylamino)-6-methylphenyl)methylsulfonamido)butanamide] | 1000 to 10000 |
| COc1cc(Nc2ncc(F)c(Nc3cccc(C)c3N(CCNC(C)=O)S(C)(=O)=O)n2)cc(OC)c1OC [Example 26, N-(2-(N-(2-(5-fluoro-2-(3,4,5-trimethoxyphenylamino)pyrimidin-4-ylamino)-6-methylphenyl)methylsulfonamido)ethyl)acetamide] | 100 to 1000 |
| COc1ccc(Nc2nc(Nc3cc(F)c(OC)cc3OC)ncc2Cl)c(N(CCN)S(C)(=O)=O)c1 [Example 10, N-(2-aminoethyl)-N-(2-(5-chloro-2-(5-fluoro-2,4-dimethoxyphenylamino)pyrimidin-4-ylamino)-5-methoxyphenyl)methanesulfonamide] | 100 to 1000 |
| COc1cc(Nc2ncc(F)c(Nc3cccc(C)c3N(CCO)S(C)(=O)=O)n2)cc(OC)c1OC [Example 15, N-(2-(5-fluoro-2-(3,4,5-trimethoxyphenylamino)pyrimidin-4-ylamino)-6-methylphenyl)-N-(2-hydroxyethyl)methanesulfonamide] | 1000 to 10000 |
| COc1ccc(Nc2nc(Nc3cc(OC)c(OC)c(OC)c3)ncc2Cl)c(N(CCNC(C)=O)S(C)(=O)=O)c1 [Example 30] | ≤ 100 |
| COc1cc(Nc2ncc(F)c(Nc3cccc(C)c3N(CCCN)S(C)(=O)=O)n2)cc(OC)c1OC [Example 21, N-(3-aminopropyl)-N-(2-(5-fluoro-2-(3,4,5-trimethoxyphenylamino)pyrimidin-4-ylamino)-6-methylphenyl)methanesulfonamide] | 100 to 1000 |
| COC(=O)CN(c1c(C)cccc1Nc1nc(Nc2cc(OC)c(OC)c(OC)c2)ncc1F)S(C)(=O)=O [Example 18, Methyl 2-(N-(2-(5-fluoro-2-(3,4,5-trimethoxyphenylamino)pyrimidin-4-ylamino)-6-methylphenyl)methylsulfonamido)acetate] | 1000 to 10000 |
| COc1ccc(Nc2nc(Nc3cc(OC)c(OC)c(OC)c3)ncc2Cl)c(N(C[C@H]2CCC(=O)N2)S(C)(=O)=O)c1 [Example 5, (R)—N-(2-(5-chloro-2-(3,4,5-trimethoxyphenylamino)pyrimidin-4-ylamino)-5-methoxyphenyl)-N-((5-oxopyrrolidin-2-yl)methyl)methanesulfonamide] | 1000 to 10000 |
| COCCN(c1c(C)cccc1Nc1nc(Nc2cc(OC)c(OC)c(OC)c2)ncc1F)S(C)(=O)=O [Example 13] | 1000 to 10000 |
| COc1cc(Nc2ncc(F)c(Nc3cccc(C)c3N(CCC#N)S(C)(=O)=O)n2)cc(OC)c1OC [Example 16, N-(2-cyanoethyl)-N-(2-(5-fluoro-2-(3,4,5-trimethoxyphenylamino)pyrimidin-4-ylamino)-6-methylphenyl)methanesulfonamide] | 100 to 1000 |
| COc1ccc(Nc2nc(Nc3cc(OC)c(OC)c(OC)c3)ncc2Cl)c(N(CCN)S(C)(=O)=O)c1 [Example 7, N-(2-aminoethyl)-N-(2-(5-chloro-2-(3,4,5-trimethoxyphenylamino)pyrimidin-4-ylamino)-5-methoxyphenyl)methanesulfonamide] | ≤ 100 |
| COc1ccc(Nc2nc(Nc3cc(OC)c(OC)c(OC)c3)ncc2Cl)c(N(C[C@@H]2CCC(=O)N2)S(C)(=O)=O)c1 [Example 4, (S)—N-(2-(5-chloro-2-(3,4,5-trimethoxyphenylamino)pyrimidin-4-ylamino)-5-methoxyphenyl)-N-((5-oxopyrrolidin-2-yl)methyl)methanesulfonamide] | ≤ 100 |
| COc1cc(Nc2ncc(F)c(Nc3cccc(C)c3N(CCC(N)=O)S(C)(=O)=O)n2)cc(OC)c1OC [Example 23, 3-(N-(2-(5-fluoro-2-(3,4,5-trimethoxyphenylamino)pyrimidin-4-ylamino)-6-methylphenyl)methylsulfonamido)propanamide] | 1000 to 10000 |
| COc1ccc(Nc2nc(Nc3cc(OC)c(OC)c(OC)c3)ncc2Cl)c(N(CCCNC=O)S(C)(=O)=O)c1 [Example 12, N-(3-(N-(2-(5-chloro-2-(3,4,5-trimethoxyphenylamino)pyrimidin-4-ylamino)-5-methoxyphenyl)methylsulfonamido)propyl)formamide] | ≤ 100 |
| COc1cc(Nc2ncc(F)c(Nc3cccc(C)c3N(CC#N)S(C)(=O)=O)n2)cc(OC)c1OC [Example 17, N-(cyanomethyl)-N-(2-(5-fluoro-2-(3,4,5-trimethoxyphenylamino)pyrimidin-4-ylamino)-6-methylphenyl)methanesulfonamide] | 1000 to 10000 |
| COc1cc(Nc2ncc(F)c(Nc3cccc(C)c3N(CCCNC(C)=O)S(C)(=O)=O)n2)cc(OC)c1OC [Example 27, N-(3-(N-(2-(5-fluoro-2-(3,4,5-trimethoxyphenylamino)pyrimidin-4-ylamino)-6-methylphenyl)methylsulfonamido)propyl)acetamide] | 100 to 1000 |
| COc1ccc(Nc2nc(Nc3cc(OC)c(OC)c(OC)c3)ncc2Cl)c(N(CCCNC(C)=O)S(C)(=O)=O)c1 [Example 29, N-(3-(N-(2-(5-chloro-2-(3,4,5-trimethoxyphenylamino)pyrimidin-4-ylamino)-5-methoxyphenyl)methylsulfonamido)propyl)acetamide] | ≤ 100 |
| COc1ccc(Nc2nc(Nc3cc(OC)c(OC)c(OC)c3)ncc2Cl)c(N(CN2CCCC2=O)S(C)(=O)=O)c1 [Example 3, N-(2-(5-chloro-2-(3,4,5-trimethoxyphenylamino)pyrimidin-4-ylamino)-5-methoxyphenyl)-N-((2-oxopyrrolidin-1-yl)methyl)methanesulfonamide] | 1000 to 10000 |
| COc1cc(Nc2ncc(F)c(Nc3ccccc3N(CCN3CCCC3)S(C)(=O)=O)n2)cc(OC)c1OC [Example 33, N-(2-(5-fluoro-2-(3,4,5-trimethoxyphenylamino)pyrimidin-4-ylamino)phenyl)-N-(2-(pyrrolidin-1-yl)ethyl)methanesulfonamide] | 1000 to 10000 |
| COc1cc(Nc2ncc(F)c(Nc3cccc(C)c3N(CCN)S(C)(=O)=O)n2)cc(OC)c1OC [Example 19, N-(2-aminoethyl)-N-(2-(5-fluoro-2-(3,4,5-trimethoxyphenylamino)pyrimidin-4-ylamino)-6-methylphenyl)methanesulfonamide] | 100 to 1000 |
| CS(=O)(=O)N(CCN1CCOCC1)c1ccccc1Nc1nc(Nc2cccc(O)c2)ncc1F [Example 32, N-(2-(5-fluoro-2-(3-hydroxyphenylamino)pyrimidin-4-ylamino)phenyl)-N-(2-morpholinoethyl)methanesulfonamide] | 1000 to 10000 |
| COc1cc(Nc2ncc(F)c(Nc3cccc(C)c3N(CCNC=O)S(C)(=O)=O)n2)cc(OC)c1OC [Example 20, N-(2-(N-(2-(5-fluoro-2-(3,4,5-trimethoxyphenylamino)pyrimidin-4-ylamino)-6-methylphenyl)methylsulfonamido)ethyl)formamide] | 100 to 1000 |
| COc1cc(Nc2ncc(Cl)c(Nc3ccccc3N(CCNC=O)S(C)(=O)=O)n2)cc(OC)c1OC [Example 2, N-(2-(N-(2-(5-chloro-2-(3,4,5-trimethoxyphenylamino)pyrimidin-4-ylamino)phenyl)methylsulfonamido)ethyl)formamide] | ≤ 100 |
| COc1ccc(Nc2nc(Nc3cc(OC)c(OC)c(OC)c3)ncc2Cl)c(N(CCNC=O)S(C)(=O)=O)c1 [Example 8] | ≤ 100 |
